Results reported in patent US4482566A, “Substituted aminoalkylbenzene type lower acylamides” (Teikoku Hormone Mfg. Co., Ltd., priority 1979, dated 1984).

How the values were obtained:
histamine H2 receptor = target: T1, histamine H2 receptor (Cavia porcellus, UniProt P47747); assay: Blocking action on histamine H2 receptor in vitro (positive chronotropic effect of histamine in spontaneously beating atria); conditions: negative logarithm of concentration required to shift dose-response of histamine to the right by 2-fold; guinea pig atria; read-out: pA2 (converted)
T1 construct: spontaneously beating atria of guinea pig in vitro; from tissue; host or cells: spontaneously beating guinea pig atria
T1 sequence (P47747 whole entry): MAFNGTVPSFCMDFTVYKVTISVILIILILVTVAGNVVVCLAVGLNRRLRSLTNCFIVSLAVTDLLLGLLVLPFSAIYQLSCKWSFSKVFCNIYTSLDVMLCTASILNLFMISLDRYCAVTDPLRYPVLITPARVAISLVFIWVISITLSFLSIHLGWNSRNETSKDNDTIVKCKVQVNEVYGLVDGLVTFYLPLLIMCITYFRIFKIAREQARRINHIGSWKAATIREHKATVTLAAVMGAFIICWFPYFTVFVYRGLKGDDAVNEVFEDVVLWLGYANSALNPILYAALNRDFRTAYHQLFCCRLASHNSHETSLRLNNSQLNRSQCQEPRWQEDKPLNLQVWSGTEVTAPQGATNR
Description: Histamine H2 receptor blocking activity of the compound was determined by obtaining the dose-response relationship of the positive chronotropic effect of histamine in spontaneously beating atria of guinea pig in vitro, in the absence and in the presence of a test compound. […] E. J. Ariens. Molecular Pharmacology, vol. 1, 153-156 (1964), Academic Press, New York).

[1] = test system: gastric acid secretion induced by histamine; assay: Inhibitory action against the gastric acid secretion induced by histamine (perfused stomach, anesthetized rats); format: in vivo; conditions: Rattus norvegicus, 1 h; male Donryu rats, urethane anesthesia; compound injected before histamine dihydrochloride 5 mg/kg i.v.; acid output during 60 min; read-out: ED50, dose to inhibit 50% of acid output of the control
Description: Inhibitory action of a test compound against the gastric acid secretion induced by histamine was determined according to the method of Ghosh and Schild (M. N. Ghosh and H. O. Schild: Br. J. Pharmacol. 13, 54, 1958) with some modifications. Male Donryu rats weighing 200±10 g were deprived of food for 24 hr prior to the experiments, with water ad lib. Under the anesthesia with 1.2 g/kg of subcutaneous urethane, trachea and cervical vein were cannulated. With midline opening, the duodenum immediately below the junction with pylorus was incised and after the stomach was flashed with saline for several times, the polyethylene tube was inserted into the pylorus through the incision, and ligated with surrounding tissues keeping the blood vessels intact. The polyvinyl tube was inserted into the mouth up to the forestomach through the esophagus and ligated at the cervical level. Saline solution kept at 35° C. was perfused through the polyvinyl tube at the rate of 1 ml/min, and the perfusate was collected through the polyethylene tube of the pylorus. The perfusate was collected for 30 min and was titrated by 0.01N NaOH with phenolphthalein as an indicator to obtain a total acid output(mEq). Subsequently, the perfusate was collected for every 30 min. After the acid output became constant, the stomach was perfused for further 60 min. After that, in the control group, 0.1 ml of saline per 100 g of body weight was intravenously injected, 10 min later 5 mg/kg of histamine dihydrochloride was injected intravenously. The perfusate for 60 min after histamine injection was collected and determined the acidity. The amount of acid output during 60 min after histamine injection subtracted that for 60 min before histamine was regarded as the acid output response to histamine. In the test groups, following the injection of three compounds (A), (B) and (C) instead of saline, 5 mg/kg of histamine dihydrochloride was injected and acid output was determined. Decreased ratio of the acid output to the control was calculated as the response to the test compound. […]

Acute toxicity = conditions: mouse, in vivo, po, SLC-ddY male mice of aging 4 weeks
Description: To test the acute toxicity of each compound (A), (B) and (C), LD50 was determined using SLC-ddY male mice of aging 4 weeks.

| Kb (histamine H2 receptor) [µM] | SMILES | ED50 [1] [mg/kg] | LD50 (Acute toxicity) [mg/kg] |
| --- | --- | --- | --- |
| 0.1 | O=C(NCCCOc1cccc(CN2CCCC2)c1)c1ccc([N+](=O)[O-])cc1 [Example 7] |  |  |
| 0.138 | O=C(NCCCOc1cccc(CN2CCCC2)c1)c1cccs1 [Example 3] |  |  |
| 0.186 | O=C(NCCCOc1cccc(CN2CCCC2)c1)c1cc(-c2ccccc2)on1 [Example 8] |  |  |
| 0.191 | O=C(NCCCOc1cccc(CN2CCCC2)c1)c1ccccc1 [Example 2] |  |  |
|  | CC(=O)NCCCOc1cccc(CN2CCCC2)c1 [compound 4, 3-(3-acetamidopropoxy)-1-(1-pyrrolidinylmethyl)benzene] | 1.65 | > 1000 |
|  | O=C(NCCCOc1cccc(CN2CCCC2)c1)c1cccnc1 [A] | 1.25 | > 1000 |
|  | O=CNCCCOc1cccc(CN2CCCC2)c1 [compound 6] | 0.84 | > 1000 |
| 0.0813 | COC(=O)c1ccc(C(=O)NCCCOc2cccc(CN3CCCC3)c2)cc1 [Example 5] |  |  |

| SMILES | Kb (histamine H2 receptor) [µM] | ED50 [1] [mg/kg] | LD50 (Acute toxicity) [mg/kg] |
| --- | --- | --- | --- |
| O=C(NCCCOc1cccc(CN2CCCC2)c1)c1cccnc1 [Example 1] | 0.129 |  |  |
| O=CNCCCOc1cccc(CN2CCCC2)c1 [Example 6] | 0.17 |  |  |
| CC(=O)NCCCOc1cccc(CN2CCCC2)c1 [Example 4] | 0.195 |  |  |
